Biological target: αvβ6 integrin (Homo sapiens, UniProt P06756+P18564)
Experiment: IC50 binding activity (Examples 3 and 12)
Settings: Example 12, Table 17; azide-functionalized structures (2b, 6.1b, 7b, 23b) examined
From the text: As reported in the following Table 1, IC50 binding data was obtained for the αvβ6 integrin ligands of Structures 1 and 2:
Azide-functionalized structures (i.e., Structures 1b and 2b) were examined for IC50 under conditions typically used and known in the art.
As reported in the following Table 17, additional IC50 binding data was obtained for the αvβ6 integrin ligands of Structures 2, 6.1, 7, and 23 used in certain Examples herein: […]

αvβ6 integrin, sequence (P06756 31-1048): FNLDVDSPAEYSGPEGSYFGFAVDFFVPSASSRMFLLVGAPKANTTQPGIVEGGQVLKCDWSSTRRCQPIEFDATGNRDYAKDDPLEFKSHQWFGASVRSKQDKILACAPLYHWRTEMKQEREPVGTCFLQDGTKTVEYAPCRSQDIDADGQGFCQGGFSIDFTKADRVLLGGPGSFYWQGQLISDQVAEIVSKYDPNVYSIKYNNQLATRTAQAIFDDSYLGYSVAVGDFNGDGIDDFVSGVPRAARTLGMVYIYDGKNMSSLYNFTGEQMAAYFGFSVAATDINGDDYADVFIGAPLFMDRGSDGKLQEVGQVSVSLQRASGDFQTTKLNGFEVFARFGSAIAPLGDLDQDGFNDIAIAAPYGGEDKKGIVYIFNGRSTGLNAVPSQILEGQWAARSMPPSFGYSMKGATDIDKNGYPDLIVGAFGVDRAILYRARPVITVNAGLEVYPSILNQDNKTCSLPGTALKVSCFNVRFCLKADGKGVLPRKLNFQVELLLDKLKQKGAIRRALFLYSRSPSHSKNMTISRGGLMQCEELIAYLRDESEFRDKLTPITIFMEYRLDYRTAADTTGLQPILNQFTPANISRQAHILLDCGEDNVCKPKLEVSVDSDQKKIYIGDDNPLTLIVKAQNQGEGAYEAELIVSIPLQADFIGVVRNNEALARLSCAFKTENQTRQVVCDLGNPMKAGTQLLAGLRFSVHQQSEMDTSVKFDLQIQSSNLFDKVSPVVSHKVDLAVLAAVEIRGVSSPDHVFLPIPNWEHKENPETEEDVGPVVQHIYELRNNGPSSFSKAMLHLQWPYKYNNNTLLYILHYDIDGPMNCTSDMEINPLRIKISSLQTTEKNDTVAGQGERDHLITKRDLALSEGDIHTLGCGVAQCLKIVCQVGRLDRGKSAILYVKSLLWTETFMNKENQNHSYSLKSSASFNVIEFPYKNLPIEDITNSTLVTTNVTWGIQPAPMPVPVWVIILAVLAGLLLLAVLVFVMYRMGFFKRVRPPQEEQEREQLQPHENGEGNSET
αvβ6 integrin, sequence (P18564 22-788): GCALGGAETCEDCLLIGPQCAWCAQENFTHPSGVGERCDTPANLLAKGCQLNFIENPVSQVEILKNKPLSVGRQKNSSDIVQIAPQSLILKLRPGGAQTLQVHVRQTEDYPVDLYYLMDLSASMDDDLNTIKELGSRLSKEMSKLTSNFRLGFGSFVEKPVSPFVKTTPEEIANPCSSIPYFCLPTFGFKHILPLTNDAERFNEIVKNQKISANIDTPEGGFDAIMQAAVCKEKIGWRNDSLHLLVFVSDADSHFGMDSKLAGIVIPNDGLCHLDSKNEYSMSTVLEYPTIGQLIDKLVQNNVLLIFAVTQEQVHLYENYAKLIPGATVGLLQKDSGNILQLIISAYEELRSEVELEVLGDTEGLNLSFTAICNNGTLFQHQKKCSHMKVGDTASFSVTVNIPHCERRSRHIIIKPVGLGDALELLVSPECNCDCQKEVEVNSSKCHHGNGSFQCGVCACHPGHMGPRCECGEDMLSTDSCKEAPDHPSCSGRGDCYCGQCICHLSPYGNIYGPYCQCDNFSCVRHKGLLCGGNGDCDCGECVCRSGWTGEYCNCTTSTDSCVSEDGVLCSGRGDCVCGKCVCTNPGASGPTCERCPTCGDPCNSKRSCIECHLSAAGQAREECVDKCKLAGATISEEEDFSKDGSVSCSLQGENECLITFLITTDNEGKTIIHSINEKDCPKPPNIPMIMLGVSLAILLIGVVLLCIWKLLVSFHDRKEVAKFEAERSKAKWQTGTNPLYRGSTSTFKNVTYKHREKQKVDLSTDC

SMILES: Cc1ccnc(NCCCC(=O)NCC(=O)N[C@@H](CC(=O)O)c2ccc(-c3ccc(OCCOCCOCCOCCOCCN=[N+]=[N-])c4ccccc34)cc2)c1 [Structure 6.1]
- IC50: 1.6 nM

Source: US11597701B2, “Integrin ligands and uses thereof” (Arrowhead Pharmaceuticals, Inc., priority 2017, dated 2023)
